We go through one molecule from patent publication US9981983B2, “Thienopyranones as kinase inhibitors” (SignalRx Pharmaceuticals, Inc., priority 2008, dated 2018).

What all share (assay type): cell-based
One assay has as its system MDA-MB468 (Breast). Briefly: Cell proliferation MTS assay, MDA-MB468. The conditions noted are these: Homo sapiens, MDA-MB-468, 72 hours. The protocol: (§1) All cell lines were obtained from ATCC and cultured and plated according to ATCC recommendations. Cells were cultured in complete culture media containing 10% heat-inactivated fetal bovine serum (FBS, Mediatech, Inc.). For adherent cell lines, once cells reached 70% confluency, they were trypsinized and resuspended in phenol red free RPMI media (Mediatech, Inc.) plus 10% heat-inactivated FBS (assay buffer) and 100 μL aliquots were plated into each well of 96-well microtiter plates at a final density of 1,000-2,000 cells/well. Cells were incubated overnight at 37° C. in 5% CO2, and treated with test compounds on the next day. For suspension cell lines, cells were resuspended in assay buffer, plated into 96-well microtiter plates at a density of 10^4-10^5 cells/well/100 μL, and treatment was started on the same day. Cells were treated with vehicle (DMSO) and test compounds for 72 hours at concentration of 100, 70, 40, 20, 10, 5, 2.5, 1.25, 0.5 and 0.2 μM in four replicates at 37° C. in 5% CO2.

Another assay has as its system U87MG (Brain). The experiment in a line: Cell proliferation MTS assay, U87MG. The conditions noted are these: Homo sapiens, U-87 MG, 72 hours. Here is the method:
as §1
In general terms: Formazan colour is commonly taken as a measure of viable cells.

The test system of a further assay is K562 (CML). Briefly: Cell proliferation MTS assay, K562. The conditions noted are these: Homo sapiens, 72 hours. Here is the method: as §1
Assay [1] deals with AKT Ser473 phosphorylation in renal cell carcinoma (786-O) Cell Line. The experiment in a line: pAKT Ser473 ELISA in 786-O cells stimulated by Bv8, VEGF, IGF. The conditions noted are these: Homo sapiens, 786-0, 786-O, read-out: Concentration Required to Inhibit pAKT to Half-maximal Levels. The protocol:
This was followed by the addition of IGF, VEGF and Bv8 to 0.1 μg/mL, 0.1 μg/mL and 2.5 μg/mL respectively for another 30 minutes before harvesting the cells and making cell lysates with RIPA buffer keeping on ice, pAKT levels were measured in duplicate samples with Cell Signaling's Ser473 pAKT ELISA kit. Optical density plate readings of pAKT levels were made at 450 nm (OD450 nm) and were normalized by total protein amount of the cell lysates. The dose of compound at which pAKT levels are reduced to 50% of the non-treatment level was calculated using GraphPad Prism4 software and is listed in Tables 4 and 5 below.
Background: ELISA stands for enzyme-linked immunosorbent assay.

In a further assay the test system is pAKT in 786-O cells. Briefly: pAKT status DM50, 786-O. The conditions noted are these: Homo sapiens, 786-0, renal cell carcinoma. Here is the method: PC3 cells were obtained from the American Type Culture Collection (ATCC, Manassas, Va., Cat.# CRL-1435). Two million cells from the prostate cancer line PC3 were placed into 6 cm culture dishes and allowed to grow in complete RPMI 1640 media (Invitrogen, Carlsbad, Calif., Cat.#22400-105) with 10% fetal bovine serum (Invitrogen, Carlsbad, Calif., Cat.#10438-026). After this time period the cells were serum starved for 5 hours followed by application of the test compound. Test compound was added as a DMSO (dimethyl sulfoxide) solution such that the final DMSO concentration in the cell media was less than or equal to 0.2% by volume After 30 minutes of exposure the growth factor stimulant, human IGF-1 (PeproTech, Inc., Rocky Hill, N.J., Cat.#100-11), was added to a final concentration of 0.1 μg/ml in each well. After 30 minutes of IGF-1 exposure, cells were removed from the media and cell lysates were prepared using RIPA Lysis buffer (Upstate, Lake Placid, N.Y., Cat.#20-188), keeping on ice. The pAKT serine 473 level was measured in duplicate samples of the cell lysates using commercially available assays such as the Pathscan® Sandwich ELISA kit for Ser473 pAKT (Cell Signaling, Danvers, Mass., Cat.#7160). A SpectraMax Plus spectrophotometric plate reader (Molecular Devices, Sunnydale, Calif.) was used to measure the optical density signal for pAKT at 450 nm (OD450 nm). The pAKT OD450 nm readings were normalized by total protein amount in the cell lysates determined by standard methods.
Concentrations of test compounds required to inhibit IGF stimulated pAKT levels to 50% of maximum levels in PC3 cells (termed DM50 for decreased maximum 50%) were calculated by inputting the dose responses in the software package GraphPad Prism4 (GraphPad Software, Inc., San Diego, Calif.).
Several other cancer cell lines were obtained from ATCC and grown according to the supplier's recommendations and treated with test compounds. DM50 values listed in Table 6 below were obtained by the methods described in Example A: […]

In a further assay the test system is BT-474 cells. Briefly: Cellular proliferation (Example B method), BT-474. The conditions noted are these: Homo sapiens; BT-474, breast cancer. The protocol:
PC3 cells were obtained from the American Type Culture Collection (ATCC, Manassas, Va., Cat.# CRL-1435) Two thousand cells from the prostate cancer line PC3 were placed in 50 μL of complete RPMI 1640 media (Invitrogen, Carlsbad, Calif., Cat.#22400-105) with 10% fetal bovine serum (Invitrogen, Carlsbad, Calif., Cat.#10438-026) into each well of 96 well cell culture plates in a hexaplicate sampling pattern. A 50 μL aliquot of test compound (prepared from stock test compounds in DMSO diluted into media) was added to the appropriate well such that the final concentrations of test compound were 200, 40, 8, 1.6, 0.32, 0.064, 0.0128, 0.00256, and 0 μM and the final DMSO concentration was less than or equal to 0.2%.
The plates were incubated for 72 hours 37° C. in an atmosphere of 5% CO2. At the end of this time a 10 μL aliquot of WST solution (Roche Applied Science, Mannheim, Germany) was added into each of the wells. Cells were exposed to the WST solution for 4 hours. A SpectraMax Plus spectrophotometric plate reader (Molecular Devices, Sunnydale, Calif.) was then used to measure the optical density at 450 nm (OD450 nm). Sigmoidal curves were drawn for the dose responses and IC50 values were calculated using the software package GraphPad Prism4 (GraphPad Software, Inc., San Diego, Calif.).
Several other cancer cell lines were obtained from ATCC and grown according to their recommendations and treated with test compounds to obtain the concentration of test compound that inhibited the cellular proliferation by 50% of no-treatment controls. These IC50 values (μM) are listed in Table 7 below obtained by the methods described in Example B: […]

Like-named read-outs stand apart in the source and are kept apart here.

Take `O=c1cc(N2CCOCC2)oc2c(-c3ccc4c(c3)OCCO4)csc12` [Compound 28, 3-(2,3-dihydrobenzo[b][1,4]dioxin-6-yl)-5-morpholino-7H-thieno[3,2-b]pyran-7-one]: the IC50 in the assay on MDA-MB468 (Breast) was 2710 nM; in the assay with U87MG (Brain), 1920 nM; in the assay with K562 (CML) it was 3.2 µM; in assay [1] (stimulant Bv8), 380 nM; in assay [1] (stimulant IGF) it was 2600 nM; in assay [1] (stimulant PBS), 541 nM. Further, the IC50 was 343 nM in assay [1] (stimulant VEGF), 1370 nM in the assay on pAKT in 786-O cells and 3.77 µM in the assay on BT-474 cells.
